In patent publication US10947196B2, “Beta adrenergic agonist and methods of using the same” (CURASEN THERAPEUTICS, INC., priority 2019, dated 2021):

Target: β2 adrenergic receptor (Homo sapiens (Human), UniProt P07550)
Experiment: cAMP Gs dynamic HTRF assay, β2 expressing CHO cells
Assay type: cell-based
Details: Average pEC50 [Receptor subtype: B2-AR; Cell type: CHO-K1 (HitHunter)], B2-AR; CHO-K1 (HitHunter)
Procedure: (§1) cAMP homogeneous time-resolved fluorescence (HTRF). Compound efficacy was determined using the cAMP Gs dynamic HTRF assay (Cisbio, catalog #62AM4PEC) largely following the manufacturer's instructions, also detailed below.
(§2) Compound preparation. […] Standard serial dilution curves were 10-point, 5-fold dilutions starting from a highest concentration of 10 μM. […] Assay plates were centrifuged at 500×g for 10 seconds. Compounds and IBMX were prepared at 2× final dose to compensate for addition of cells.
(§3) Cell preparation. 1× stimulation buffer, washing PBS (Dulbecco's phosphate-buffered saline, −Mg −Ca; Caisson Labs, catalog #PBL01), assay PBS (Dulbecco's phosphate-buffered saline, +Mg, +Ca; Caisson Labs, catalog #PBL02) and Versene (0.02% EDTA disodium salt solution in PBS without calcium or magnesium; Caisson Labs, catalog #EDL01) were pre-warmed to 37° C. Cells expressing beta-adrenergic receptor were washed in washing PBS to remove growth medium and then released from the surface by incubating with Versene for 5-10 minutes at 37° C. Cells were harvested using assay PBS, counted manually by hemocytometer or by an automated cell counter, pelleted by centrifugation (200×g, 5 minutes) and resuspended in 37° C. 1× stimulation buffer to a final density of 1.5×10^6 cells/mL. 5 μL of the suspended cell solution (7500 cell total) were added to all wells of the 384 well assay plate, the assay plate was covered with an Axygen® plate seal (Corning PCR-SP) and incubated in a humidified 37° C. environment supplemented with 5% CO2 for 30 minutes.
(§4) HTRF reagent addition, reading and data analysis. After 30 minutes of cell stimulation with test compound, the assay plates were centrifuged at 500×g for 10 seconds, and incubation was stopped with the addition of 5 μL cAMP-D2 acceptor, diluted 1:21 in detection and lysis buffer 2 (Cisbio 62CL2FDF) was added to all cells. Subsequently, 5 μL Anti-cAMP-Eu Donor, diluted 1:21 in detection and lysis buffer 2, was added to cells. Plates were sealed and reactions gently ‘vortexed’ at 900 rpm on a Heidolph Titramax 1000 for at least 30 minutes at room temperature. Plates were centrifuged again at 500×g for 10 seconds, and HTRF was measured using a Tecan Spark plate reader at 50 flashes per well. […] Potency estimates (EC50) were derived from the four-parameter nonlinear regression of the concentration-effect curve and an estimate of relative efficacy was determined by comparing the magnitude of the test compound HTRF signal window (min−max dose) with the signal window of the full agonist control, isoproterenol.

β2 adrenergic receptor, sequence (P07550 whole entry, species assumed): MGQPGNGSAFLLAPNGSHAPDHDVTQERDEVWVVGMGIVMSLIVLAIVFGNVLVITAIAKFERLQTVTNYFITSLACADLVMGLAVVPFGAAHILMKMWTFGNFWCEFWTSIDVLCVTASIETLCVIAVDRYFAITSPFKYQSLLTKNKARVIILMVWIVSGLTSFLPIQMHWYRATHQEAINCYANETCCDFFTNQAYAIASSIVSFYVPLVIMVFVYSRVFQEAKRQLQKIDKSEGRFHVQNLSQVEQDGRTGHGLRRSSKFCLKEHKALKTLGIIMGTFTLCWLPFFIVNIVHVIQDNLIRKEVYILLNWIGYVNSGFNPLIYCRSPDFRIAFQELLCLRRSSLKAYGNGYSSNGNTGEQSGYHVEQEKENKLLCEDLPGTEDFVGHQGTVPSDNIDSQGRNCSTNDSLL

Structure (SMILES)	EC50 [nM]
CNc1ccc([C@@H](O)CN[C@H](C)Cc2ccc(OC)cc2)c(C)n1 [Compound 03-277]	< 10
COc1ccc(C[C@@H](C)NC[C@H](O)c2cnc(C)nc2C)cc1 [Compound 03-270]	10 to 100

Same assay, conditions: B2-AR; CHO-K1 (HitHunter)

Structure (SMILES)	Average pEC50 [Receptor subtype: B2-AR; Cell type: CHO-K1 (HitHunter)]
COc1ccc(C[C@@H](C)NC[C@H](O)c2ccc(C3CC3)nc2C)cc1 [Compound 03-269]	A (A > 8)
CC(C)(C)NC[C@@H](O)c1cccc(C#N)n1 [Compound 03-48, (R)-6-(2-(tert-butylamino)-1-hydroxyethyl)picolinonitrile]	C-D

Same assay, conditions: B2-AR; CHO-K1 (HitHunter); read-out: Average pEC50 [Receptor subtype: B2-AR; Cell type: CHO-K1 (HitHunter)] (converted)

Structure (SMILES)	EC50 [nM]
CC(C)(C)NC[C@H](O)c1cccc(C(C)(C)CN)n1 [Compound 03-280]	> 1000
CC(C)Nc1cccc([C@H](O)CNC(C)(C)C)n1 [Compound 03-232]	10 to 100
CNCc1cccc([C@@H](O)CNC(C)(C)C)n1 [Compound 03-252]	> 1000
CC(C)(C)NC[C@H](O)c1cccc(NC2CC(F)(F)C2)n1 [Compound 03-263]	< 10
CC(C)(C)NC[C@H](O)c1cccc(N2CCCCC2)n1 [Compound 03-137]	< 10
CC(C)(C)NC[C@H](O)c1cccc(-c2ccccc2)n1 [Compound 03-28]	< 10
Cc1ncc(F)cc1[C@@H](O)CNC(C)(C)C [Compound 03-258]	10 to 100
COc1ccc(CC(C)(C)NC[C@@H](O)c2cccc(C(F)(F)F)n2)cc1 [Compound 03-183]	100 to 1000
CC(C)(C)NC[C@@H](O)c1cccc(C2=CCCC2)n1 [Compound 03-234]	10 to 100
CC(C)(C)NC[C@H](O)c1ccc(C#N)cn1 [Compound 03-212]	100 to 1000
Cc1cccc([C@H](O)CNC(C)(C)C)n1 [Compound 03-47]	> 1000
CC(C)(C)NC[C@H](O)c1cccc(N2CCOCC2)n1 [Compound 03-157]	< 10
COc1ccc(C[C@@H](C)NC[C@H](O)c2cccc(C3CCCC3)n2)cc1 [Compound 03-265]	< 10
CC(C)(C)NC[C@H](O)c1cccc(C2=NCCN2)n1 [Compound 03-86]	100 to 1000
CC(C)(C)NC[C@@H](O)c1cccc(N2CCOCC2)n1 [Compound 03-158]	10 to 100
CC(C)(C)NC[C@H](O)c1cccc(-n2ccnc2)n1 [Compound 03-213]	10 to 100
O[C@H](CNC1CCC1)c1cccc(C(F)(F)F)n1 [Compound 03-34]	> 1000
Cc1cccc(-c2cccc([C@H](O)CNC(C)(C)C)n2)c1 [Compound 03-148]	100 to 1000
CCNc1cccc([C@@H](O)CNC(C)(C)C)n1 [Compound 03-262]	< 10

Same assay, conditions: B2-AR; CHO-K cells; read-out: Average EC50 [Receptor subtype: B2-AR; Cell type: CHO-K]

Structure (SMILES)	EC50 [nM]
CC(C)(C)NC[C@H](O)c1cccc(N2CCCCC2)n1 [Compound 03-137]	< 10
CC(C)(C)NC[C@H](O)c1cccc(-c2ccccc2)n1 [Compound 03-28]	< 10
COc1ccc(CC(C)(C)NC[C@@H](O)c2cccc(C(F)(F)F)n2)cc1 [Compound 03-183]	100 to 1000
CC(C)(C)NC[C@@H](O)c1cccc(C#N)n1 [Compound 03-48, (R)-6-(2-(tert-butylamino)-1-hydroxyethyl)picolinonitrile]	> 1000
Cc1cccc([C@H](O)CNC(C)(C)C)n1 [Compound 03-47]	> 1000
CC(C)(C)NC[C@H](O)c1cccc(N2CCOCC2)n1 [Compound 03-157]	< 10
CC(C)(C)NC[C@@H](O)c1cccc(N2CCOCC2)n1 [Compound 03-158]	10 to 100
O[C@H](CNC1CCC1)c1cccc(C(F)(F)F)n1 [Compound 03-34]	> 1000
Cc1cccc(-c2cccc([C@H](O)CNC(C)(C)C)n2)c1 [Compound 03-148]	100 to 1000

Target: β1-adrenergic receptor (Homo sapiens (Human), UniProt P08588)
Sequence (P08588 whole entry, species assumed): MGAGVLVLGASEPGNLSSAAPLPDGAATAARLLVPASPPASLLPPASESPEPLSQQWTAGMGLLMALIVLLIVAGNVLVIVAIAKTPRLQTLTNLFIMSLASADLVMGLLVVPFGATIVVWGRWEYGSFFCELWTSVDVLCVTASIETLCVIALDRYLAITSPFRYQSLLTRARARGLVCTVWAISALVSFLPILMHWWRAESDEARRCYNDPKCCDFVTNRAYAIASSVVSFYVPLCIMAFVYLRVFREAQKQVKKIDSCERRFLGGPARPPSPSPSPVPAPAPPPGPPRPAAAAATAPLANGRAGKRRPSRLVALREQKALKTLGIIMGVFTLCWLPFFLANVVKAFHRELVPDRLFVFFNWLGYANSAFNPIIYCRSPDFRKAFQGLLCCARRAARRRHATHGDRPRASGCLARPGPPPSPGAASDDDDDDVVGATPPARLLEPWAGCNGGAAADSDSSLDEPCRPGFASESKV
Experiment: cAMP Gs dynamic HTRF assay, β1 expressing CHO cells
Assay type: cell-based
Details: Average pEC50 [Receptor subtype: B1-AR; Cell type: CHO-K1 (HitHunter)], B1-AR; CHO-K1 (HitHunter)
Procedure: as §1, §2, §3, §4

Structure (SMILES)	EC50 [nM]
CNc1ccc([C@@H](O)CN[C@H](C)Cc2ccc(OC)cc2)c(C)n1 [Compound 03-277]	> 1000
COc1ccc(C[C@@H](C)NC[C@H](O)c2cnc(C)nc2C)cc1 [Compound 03-270]	> 1000

Same assay, conditions: B1-AR; CHO-K1 (HitHunter)

Structure (SMILES)	Average pEC50 [Receptor subtype: B1-AR; Cell type: CHO-K1 (HitHunter)]
COc1ccc(C[C@@H](C)NC[C@H](O)c2ccc(C3CC3)nc2C)cc1 [Compound 03-269]	B (B = 8-7)
CC(C)(C)NC[C@@H](O)c1cccc(C#N)n1 [Compound 03-48, (R)-6-(2-(tert-butylamino)-1-hydroxyethyl)picolinonitrile]	D (D < 6)
CC(C)(C)NC[C@H](O)c1cccc(N2CCOCC2)n1 [Compound 03-157]	A (A > 8)
CC(C)(C)NC[C@@H](O)c1cccc(N2CCOCC2)n1 [Compound 03-158]	D (D < 6)
O[C@H](CNC1CCC1)c1cccc(C(F)(F)F)n1 [Compound 03-34]	D (D < 6)

Same assay, conditions: B1-AR; CHO-K1 (HitHunter); read-out: Average pEC50 [Receptor subtype: B1-AR; Cell type: CHO-K1 (HitHunter)] (converted)

Structure (SMILES)	EC50 [nM]
CC(C)(C)NC[C@H](O)c1cccc(C(C)(C)CN)n1 [Compound 03-280]	> 1000
CC(C)Nc1cccc([C@H](O)CNC(C)(C)C)n1 [Compound 03-232]	10 to 100
CNCc1cccc([C@@H](O)CNC(C)(C)C)n1 [Compound 03-252]	> 1000
CC(C)(C)NC[C@H](O)c1cccc(NC2CC(F)(F)C2)n1 [Compound 03-263]	10 to 100
CC(C)(C)NC[C@H](O)c1cccc(N2CCCCC2)n1 [Compound 03-137]	100 to 1000
CC(C)(C)NC[C@H](O)c1cccc(-c2ccccc2)n1 [Compound 03-28]	10 to 100
Cc1ncc(F)cc1[C@@H](O)CNC(C)(C)C [Compound 03-258]	100 to 1000
COc1ccc(CC(C)(C)NC[C@@H](O)c2cccc(C(F)(F)F)n2)cc1 [Compound 03-183]	> 1000
CC(C)(C)NC[C@@H](O)c1cccc(C2=CCCC2)n1 [Compound 03-234]	10 to 100
CC(C)(C)NC[C@H](O)c1ccc(C#N)cn1 [Compound 03-212]	> 1000
Cc1cccc([C@H](O)CNC(C)(C)C)n1 [Compound 03-47]	> 1000
COc1ccc(C[C@@H](C)NC[C@H](O)c2cccc(C3CCCC3)n2)cc1 [Compound 03-265]	10 to 100
CC(C)(C)NC[C@H](O)c1cccc(C2=NCCN2)n1 [Compound 03-86]	> 1000
CC(C)(C)NC[C@H](O)c1cccc(-n2ccnc2)n1 [Compound 03-213]	> 1000
Cc1cccc(-c2cccc([C@H](O)CNC(C)(C)C)n2)c1 [Compound 03-148]	100 to 1000
CCNc1cccc([C@@H](O)CNC(C)(C)C)n1 [Compound 03-262]	10 to 100

Same assay, conditions: B1-AR; CHO-K cells; read-out: Average EC50 [Receptor subtype: B1-AR; Cell type: CHO-K]

Structure (SMILES)	EC50 [nM]
CC(C)(C)NC[C@H](O)c1cccc(N2CCCCC2)n1 [Compound 03-137]	100 to 1000
CC(C)(C)NC[C@H](O)c1cccc(-c2ccccc2)n1 [Compound 03-28]	10 to 100
COc1ccc(CC(C)(C)NC[C@@H](O)c2cccc(C(F)(F)F)n2)cc1 [Compound 03-183]	> 1000
CC(C)(C)NC[C@@H](O)c1cccc(C#N)n1 [Compound 03-48, (R)-6-(2-(tert-butylamino)-1-hydroxyethyl)picolinonitrile]	> 1000
Cc1cccc([C@H](O)CNC(C)(C)C)n1 [Compound 03-47]	> 1000
CC(C)(C)NC[C@H](O)c1cccc(N2CCOCC2)n1 [Compound 03-157]	< 10
CC(C)(C)NC[C@@H](O)c1cccc(N2CCOCC2)n1 [Compound 03-158]	> 1000
O[C@H](CNC1CCC1)c1cccc(C(F)(F)F)n1 [Compound 03-34]	> 1000
Cc1cccc(-c2cccc([C@H](O)CNC(C)(C)C)n2)c1 [Compound 03-148]	100 to 1000
